According to patent US10781229B2, “Tris- or neopentyl glycol-based amphiphiles and uses thereof” (Industry-University Cooperation Foundation Hanyang …, priority 2015, dated 2020):

Legend:
[1] = Hydrodynamic radius and size distribution of micelles by dynamic light scattering (DLS); format: physicochemical
Procedure: A method of measuring the radius of a micelle is not specifically limited and may be any method generally known in the art. For example, the radius may be measured by a dynamic light scattering (DLS) experiment.
In particular, critical micellar concentrations (CMCs) were measured using hydrophobic fluorescence staining and diphenylhexatriene (DPH), and hydrodynamic radii (Rh) of micelles formed of each material were measured by a dynamic light scattering (DLS) experiment. Measured results are compared to values of DDM as an existing amphipathic molecule (detergent).
Meanwhile, size distributions of the micelles formed of TDTs and NDTs were measured using DLS. Results are illustrated in FIG. 5. TDTs or NDTs were respectively used in an amount of 0.5% by weight. As a result, micelles of TDTs or NDTs were measured as forming a single community.

MelBSt = target: T1, MelBSt (Salmonella typhimurium, UniProt P30878); assay: Trp to D2G FRET reversal by melibiose, functional state of solubilized MelBSt; format: biochemical; settings: 1.0% by weight, solubilized at 23° C. for 30 minutes
T1 construct: made in house; host or cells: E. coli DW2, right-side-out membrane vesicles
Procedure: So as to investigate functional states of MelB proteins dissolved by amphipathic molecules, Førster resonance energy transfer (FRET) to 2′-(N-dansyl)aminoalkyl-1-thio-β-D-galactopyranoside (D^2G), as a fluorescence ligand, was measured in tryptophan (Trp). […] However, if a protein dissolved by an amphipathic molecule has activity, melibiose substitutes for the coupled D^2G molecule upon addition of the melibiose and thus energy transfer no longer occurs, thereby decreasing fluorescence intensity. Accordingly, the activity of the MelB protein dissolved in DDM or NDT-C11 can be determined by whether reversal of D^2G FRET occurs due to melibiose in Trp. Therefore, the FRET measurement method is an efficient method to measure the membrane protein structural stabilization ability of an amphipathic molecule.
In particular, a right-side-out (RSO) membrane vesicle was prepared by osmotic lysis of an E. coli DW2 cell containing MelBSt or MelBEc and re-suspended with 100 mM KPi (pH 7.5), followed by storing at −80° C. D^2G was provided by H. Ronald Kaback and Gerard Leblanc. A protein concentration of an RSO membrane vesicle in 100 mM KPi, pH 7.5, and 50 mM NaCl was 1 mg/ml concentration. […] An emission wavelength of MelBEc was measured at 465 nm and an emission wavelength of MelBSt was measured at 490 nm. […] Accordingly, fluorescence intensity is decreased. […]

[2] = target: T2, melibiose permease (MelB), MelBSt (Salmonella typhimurium, UniProt P30878); assay: MelB extraction efficiency and stability by SDS-PAGE and western immunoblotting; settings: 1.5% by weight, 55° C., 90 minutes
T2 construct: made in house; host or cells: 'Salmonella typhimurium DW2 cell (melB and lacZY)', plasmid pK95AHB/WT MelBSt/CH10
Procedure: Experiments to measure the extraction efficiency and structural stability of a Salmonella typhimurium melibiose permease (MelB) protein by TDTs or NDTs were conducted. The MelB protein was extracted using TDTs, NDTs, or DDM and then the amounts and structures of extracted proteins were quantitatively analyzed by SDS-PAGE and western immunoblotting. The concentrations of the used amphipathic molecules were 1.5% by weight. Protein extraction was carried out at four temperatures (0, 45, 55 or 65° C.) for 90 minutes to simultaneously evaluate the protein extraction efficiency and stabilization ability of the amphipathic molecules.
In particular, in accordance with a method disclosed in a paper (P. S. Chae, et al., Chemistry. 2013, 19, 15645-15651) published by the present inventors, a protein (MelBSt) was produced using a pK95AHB/WT MelBSt/CH10 plasmid and a Salmonella typhimurium DW2 cell (melB and lacZY) to encode wild-type MelB having a 10-His tag at a C-terminal. In accordance with a method disclosed in a paper (Nat. Commun. 2014, 5, 3009) published by A. S. Ethayathulla, et al., cell proliferation and membrane preparation was carried out. Protein analysis was performed using a Micro BCA kit (Thermo Scientific, Rockford, Ill.). So as to measure the solubilization/stability of MelBSt, a membrane sample including MelBSt (final protein concentration of 10 mg/mL) was mixed with a solubilization buffer (20 mM sodium phosphate, pH 7.5, 200 mM NaCl, 10% glycerol, and 20 mM melibiose) and 1.5% (w/v) DDM, TDTs or NDTs. An extracted product was incubated at four temperatures (0, 45, 55 and 65° C.) for 90 minutes. Ultracentrifugation was carried out for 45 minutes at 4° C. and 355,590 g by means of a Beckman Optima™ MAX ultracentrifuge and a TLA-100 rotor. Subsequently, 20 μg of a protein was separated by SDS-16% PAGE and then subjected to immunoblotting with a Penta-His-HRP antibody (Qiagen, Germantown, Md.).

T2 sequence (P30878 whole entry): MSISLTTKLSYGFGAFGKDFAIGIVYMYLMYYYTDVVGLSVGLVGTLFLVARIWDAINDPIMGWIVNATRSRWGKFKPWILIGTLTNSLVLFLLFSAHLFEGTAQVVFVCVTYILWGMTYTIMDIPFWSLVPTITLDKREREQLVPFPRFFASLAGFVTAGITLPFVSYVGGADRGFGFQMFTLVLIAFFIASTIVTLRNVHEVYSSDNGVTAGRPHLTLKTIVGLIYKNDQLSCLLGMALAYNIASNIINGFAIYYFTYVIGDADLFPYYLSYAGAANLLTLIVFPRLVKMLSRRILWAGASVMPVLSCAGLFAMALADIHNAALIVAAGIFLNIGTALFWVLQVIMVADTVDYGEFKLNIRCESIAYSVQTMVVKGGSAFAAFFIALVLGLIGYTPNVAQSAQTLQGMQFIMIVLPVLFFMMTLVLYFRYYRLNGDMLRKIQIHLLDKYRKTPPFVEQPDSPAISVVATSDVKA
T1 sequence (P30878 whole entry): as above

Structure (SMILES)	Rh (hydrodynamic radius of micelles) [1] [nm]	Functional state of solubilized MelBSt (melibiose binding, FRET) (MelBSt)	MelB dissolved / solubilization ability [2]
CCCCCCCCCCCCOC1OC(CO)C(OC2OC(CO)C(O)C(O)C2O)C(O)C1O [DDM, n-dodecyl-β-D-maltopyranoside, reference compound]	3.4 ± 0.0	enable production of functional MelBSt proteins	hardly detected
CCCCCCCCCCCC(CCCCCCCCCCC)COCC(CO[C@@H]1OC(CO)[C@@H](O)C(O)C1O)(CO[C@@H]1OC(CO)[C@@H](O)C(O)C1O)CO[C@@H]1OC(CO)[C@@H](O)C(O)C1O (stereo partly drawn) [NDT-C11]	3.5 ± 0.0	enable production of functional MelBSt proteins	most excellent
